# According to patent US12077503B2, “Substituted cyclic amides and their use as herbicides” (FMC CORPORATION, priority 2015, dated 2024):
# How the values were obtained:
# Type in all cases: in vivo
# [1] = system: ivy-leaved morning glory (Ipomoea hederacea); test: Test G Pre-Emergence Protocol; conditions: Ipomoea, pre-emergence, 312 h, evaluated after 13 days; for pest or weed control at 62.5 g/ha: 62.5 g ai/ha, 100=total damage to plant, 0=no damage to plant, read-out: plant damage rating, Morningglory, Ivy-leaved; for pest or weed control at 250 g/ha: 250 g ai/ha, read-out: Morningglory, Ivy-leaved damage rating (100=total damage to plant; 0=no damage to plant)
# Summary of the method: (§1)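 Under a 24/16° C day/night regime with 14 h light and 65% humidity, sown pots were sprayed after one day with compound (15.625, 62.5 or 250 g/ha; 50:50 acetone/water, 0.5% Tween 20). Damage was assessed visually 13 days later, 0 to 100.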
# [2] = system: redroot pigweed (Amaranthus retroflexus); test: Test G Pre-Emergence Protocol; conditions: Amaranthus retroflexus, pre-emergence, 312 h, evaluated after 13 days; for pest or weed control at 15.625 g/ha: 15.625 g ai/ha; for pest or weed control at 15.625 g/ha / pest or weed control at 250 g/ha: read-out: Pigweed, Redroot damage rating (100=total damage to plant; 0=no damage to plant); for pest or weed control at 62.5 g/ha: 62.5 g ai/ha, 100=total damage to plant, 0=no damage to plant, read-out: plant damage rating, Pigweed, Redroot; for pest or weed control at 250 g/ha: 250 g ai/ha
# Summary of the method: as §1
# [3] = system: velvetleaf (Abutilon theophrasti); test: Test G Pre-Emergence Protocol; conditions: Abutilon theophrasti, pre-emergence, 312 h, evaluated after 13 days; for pest or weed control at 15.625 g/ha: 15.625 g ai/ha; for pest or weed control at 15.625 g/ha / pest or weed control at 250 g/ha: read-out: Velvetleaf damage rating (100=total damage to plant; 0=no damage to plant); for pest or weed control at 62.5 g/ha: 62.5 g ai/ha, 100=total damage to plant, 0=no damage to plant, read-out: plant damage rating, Velvetleaf; for pest or weed control at 250 g/ha: 250 g ai/ha
# Summary of the method: as §1
# [4] = system: barnyardgrass (Echinochloa crus-galli); test: Test G Pre-Emergence Protocol; conditions: Echinochloa crus-galli, pre-emergence, 312 h, evaluated after 13 days; for pest or weed control at 15.625 g/ha: 15.625 g ai/ha, read-out: Barnyard grass damage rating (100=total damage to plant; 0=no damage to plant); for pest or weed control at 62.5 g/ha: 62.5 g ai/ha, 100=total damage to plant, 0=no damage to plant, read-out: plant damage rating, Barnyardgrass; for pest or weed control at 250 g/ha: 250 g ai/ha, read-out: Barnyardgrass damage rating (100=total damage to plant; 0=no damage to plant)
# Summary of the method: as §1
# [5] = system: giant foxtail (Setaria faberi); test: Test G Pre-Emergence Protocol; conditions: Setaria faberi, pre-emergence, 312 h, evaluated after 13 days; for pest or weed control at 15.625 g/ha: 15.625 g ai/ha; for pest or weed control at 15.625 g/ha / pest or weed control at 250 g/ha: read-out: Foxtail, Giant damage rating (100=total damage to plant; 0=no damage to plant); for pest or weed control at 62.5 g/ha: 62.5 g ai/ha, 100=total damage to plant, 0=no damage to plant, read-out: plant damage rating, Foxtail, Giant; for pest or weed control at 250 g/ha: 250 g ai/ha
# Summary of the method: as §1
# corn (Zea mays) [6] = test: Test G Pre-Emergence Protocol; conditions: Zea mays, pre-emergence, 312 h, evaluated after 13 days; for plant injury at 15.625 g/ha: 15.625 g ai/ha; for plant injury at 15.625 g/ha / plant injury at 250 g/ha: read-out: Corn damage rating (100=total damage to plant; 0=no damage to plant); for plant injury at 62.5 g/ha: 62.5 g ai/ha, 100=total damage to plant, 0=no damage to plant, read-out: plant damage rating, Corn; for plant injury at 250 g/ha: 250 g ai/ha
# Summary of the method: as §1
# [7] = system: ivy-leaved morning glory (Ipomoea hederacea); test: Test G Post-Emergence Protocol; conditions: Ipomoea, post-emergence, 312 h; for pest or weed control at 15.625 g/ha: 15.625 g ai/ha, evaluated after 13 days (100=total damage to plant; 0=no damage to plant), read-out: Morningglory, Ivy-leaved damage rating; for pest or weed control at 62.5 g/ha: 62.5 g ai/ha, read-out: Morningglory, Ivy-leaved damage rating (100=total damage to plant; 0=no damage to plant); for pest or weed control at 62.5 g/ha / pest or weed control at 250 g/ha: evaluated after 13 days; for pest or weed control at 250 g/ha: 250 g ai/ha, read-out: damage to plant, Morningglory, Ivy-leaved (100=total damage to plant; 0=no damage to plant)
# Summary of the method: (§2)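 Scores run 0 (no damage) to 100 (total damage) and were taken 13 days after spraying. Plants had been raised in pots for 8 days under glasshouse control (24/16 °C, 14 h photoperiod, 65% humidity) and then treated at 15.625, 62.5 or 250 g/ha.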
# [8] = system: redroot pigweed (Amaranthus retroflexus); test: Test G Post-Emergence Protocol; conditions: Amaranthus retroflexus, post-emergence, 312 h; for pest or weed control at 15.625 g/ha: 15.625 g ai/ha, evaluated after 13 days (100=total damage to plant; 0=no damage to plant), read-out: Pigweed, Redroot damage rating; for pest or weed control at 62.5 g/ha: 62.5 g ai/ha, read-out: Pigweed, Redroot damage rating (100=total damage to plant; 0=no damage to plant); for pest or weed control at 62.5 g/ha / pest or weed control at 250 g/ha: evaluated after 13 days; for pest or weed control at 250 g/ha: 250 g ai/ha, read-out: damage to plant, Pigweed, Redroot (100=total damage to plant; 0=no damage to plant)
# Summary of the method: as §2
# [9] = system: velvetleaf (Abutilon theophrasti); test: Test G Post-Emergence Protocol; conditions: Abutilon theophrasti, post-emergence, 312 h; for pest or weed control at 15.625 g/ha: 15.625 g ai/ha, evaluated after 13 days (100=total damage to plant; 0=no damage to plant), read-out: Velvetleaf damage rating; for pest or weed control at 62.5 g/ha: 62.5 g ai/ha, read-out: Velvetleaf damage rating (100=total damage to plant; 0=no damage to plant); for pest or weed control at 62.5 g/ha / pest or weed control at 250 g/ha: evaluated after 13 days; for pest or weed control at 250 g/ha: 250 g ai/ha, read-out: damage to plant, Velvetleaf (100=total damage to plant; 0=no damage to plant)
# Summary of the method: as §2
# [10] = system: barnyardgrass (Echinochloa crus-galli); test: Test G Post-Emergence Protocol; conditions: Echinochloa crus-galli, post-emergence, 312 h; for pest or weed control at 15.625 g/ha: 15.625 g ai/ha, evaluated after 13 days (100=total damage to plant; 0=no damage to plant), read-out: Barnyardgrass damage rating; for pest or weed control at 62.5 g/ha: 62.5 g ai/ha, read-out: Barnyardgrass damage rating (100=total damage to plant; 0=no damage to plant); for pest or weed control at 62.5 g/ha / pest or weed control at 250 g/ha: evaluated after 13 days; for pest or weed control at 250 g/ha: 250 g ai/ha, read-out: damage to plant, Barnyardgrass (100=total damage to plant; 0=no damage to plant)
# Summary of the method: as §2
# [11] = system: giant foxtail (Setaria faberi); test: Test G Post-Emergence Protocol; conditions: Setaria faberi, post-emergence, 312 h; for pest or weed control at 15.625 g/ha: 15.625 g ai/ha, evaluated after 13 days (100=total damage to plant; 0=no damage to plant), read-out: Foxtail, Giant damage rating; for pest or weed control at 62.5 g/ha: 62.5 g ai/ha, read-out: Foxtail, Giant damage rating (100=total damage to plant; 0=no damage to plant); for pest or weed control at 62.5 g/ha / pest or weed control at 250 g/ha: evaluated after 13 days; for pest or weed control at 250 g/ha: 250 g ai/ha, read-out: damage to plant, Foxtail, Giant (100=total damage to plant; 0=no damage to plant)
# Summary of the method: as §2
# corn (Zea mays) [12] = test: Test G Post-Emergence Protocol; conditions: Zea mays, post-emergence, 312 h; for plant injury at 15.625 g/ha: 15.625 g ai/ha, evaluated after 13 days (100=total damage to plant; 0=no damage to plant), read-out: Corn damage rating; for plant injury at 62.5 g/ha: 62.5 g ai/ha, read-out: Corn damage rating (100=total damage to plant; 0=no damage to plant); for plant injury at 62.5 g/ha / plant injury at 250 g/ha: evaluated after 13 days; for plant injury at 250 g/ha: 250 g ai/ha, read-out: damage to plant, Corn (100=total damage to plant; 0=no damage to plant)
# Summary of the method: as §2
Structure (SMILES),pest or weed control at 62.5 g/ha [1] [%],pest or weed control at 250 g/ha [1] [%],pest or weed control at 15.625 g/ha [2] [%],pest or weed control at 62.5 g/ha [2] [%],pest or weed control at 250 g/ha [2] [%],pest or weed control at 15.625 g/ha [3] [%],pest or weed control at 62.5 g/ha [3] [%],pest or weed control at 250 g/ha [3] [%],pest or weed control at 15.625 g/ha [4] [%],pest or weed control at 62.5 g/ha [4] [%],pest or weed control at 250 g/ha [4] [%],pest or weed control at 15.625 g/ha [5] [%],pest or weed control at 62.5 g/ha [5] [%],pest or weed control at 250 g/ha [5] [%],plant injury at 15.625 g/ha (corn (Zea mays) [6]) [%],plant injury at 62.5 g/ha (corn (Zea mays) [6]) [%],plant injury at 250 g/ha (corn (Zea mays) [6]) [%],pest or weed control at 15.625 g/ha [7] [%],pest or weed control at 62.5 g/ha [7] [%],pest or weed control at 250 g/ha [7] [%],further results
Cc1conc1NC(=O)[C@@H]1C(=O)N(C)C[C@H]1c1ccc(C(F)(F)F)cc1 (racemic) [Compound 1553],0,0,0,0,0,0,0,0,0,0,0,0,0,0,0,0,0,0,0,0,pest or weed control at 15.625 g/ha [8]: 0%; pest or weed control at 62.5 g/ha [8]: 0%; pest or weed control at 250 g/ha [8]: 0%; pest or weed control at 15.625 g/ha [9]: 0%; pest or weed control at 62.5 g/ha [9]: 0%; pest or weed control at 250 g/ha [9]: 0%; pest or weed control at 15.625 g/ha [10]: 0%; pest or weed control at 62.5 g/ha [10]: 0%; pest or weed control at 250 g/ha [10]: 0%; pest or weed control at 15.625 g/ha [11]: 0%; pest or weed control at 62.5 g/ha [11]: 0%; pest or weed control at 250 g/ha [11]: 0%; plant injury at 15.625 g/ha (corn (Zea mays) [12]): 0%; plant injury at 62.5 g/ha (corn (Zea mays) [12]): 0%; plant injury at 250 g/ha (corn (Zea mays) [12]): 0%
Cc1cc(NC(=O)[C@@H]2C(=O)N(C)C[C@H]2c2ccc(C(F)(F)F)cc2)sn1 (racemic) [Compound 1560],0,0,0,0,0,0,0,0,0,0,10,0,0,10,0,0,10,0,0,0,"pest or weed control at 15.625 g/ha ([1]; 15.625 g ai/ha, read-out: Morning-glory, Ivy-leaved damage rating (100=total damage to plant; 0=no damage to plant)): 0%; pest or weed control at 15.625 g/ha [8]: 0%; pest or weed control at 62.5 g/ha [8]: 0%; pest or weed control at 250 g/ha [8]: 20%; pest or weed control at 15.625 g/ha [9]: 0%; pest or weed control at 62.5 g/ha [9]: 0%; pest or weed control at 250 g/ha [9]: 10%; pest or weed control at 15.625 g/ha [10]: 0%; pest or weed control at 62.5 g/ha [10]: 0%; pest or weed control at 250 g/ha [10]: 20%; pest or weed control at 15.625 g/ha [11]: 0%; pest or weed control at 62.5 g/ha [11]: 0%; pest or weed control at 250 g/ha [11]: 20%; plant injury at 15.625 g/ha (corn (Zea mays) [12]): 0%; plant injury at 62.5 g/ha (corn (Zea mays) [12]): 0%; plant injury at 250 g/ha (corn (Zea mays) [12]): 0%"
